In ChEMBL document CHEMBL1139771, “Anti-inflammatory property of the urinary metabolites of nobiletin in mouse” (Bioorg Med Chem Lett, 2007) one finds Activity data, which are given here for four compounds.

Structures are written as SMILES. The source made the active and inactive calls. No cut-off for these calls is given here.

In data set [1] the test system is RAW264.7. Nature of the data set: Inhibition of LPS-induced COX2 gene expression in mouse RAW264.7 cells at 20 uM after 24 hrs by RT-PCR. The data set is classed as functional, cell-based.
Data set [2] deals with RAW264.7. The data set can be described thus: Inhibition of LPS-induced COX2 protein expression in mouse RAW264.7 cells at 5 uM after 24 hrs by Western blotting. Type of data set: functional, cell-based. (In western blotting, separated proteins are transferred to a membrane and probed.)
Data set [3] concerns RAW264.7. The data set can be described thus: Inhibition of LPS-induced iNOS gene expression in mouse RAW264.7 cells at 20 uM after 24 hrs by RT-PCR. The data set is classed as functional, cell-based.
The test system of data set [4] is RAW264.7. Nature of the data set: Antiinflammatory activity in mouse RAW264.7 cells assessed as inhibition of LPS-induced nitric oxide production at 30 uM after 24 hrs. Type of data set: functional, cell-based.
Data set [5] concerns RAW264.7. Nature of the data set: Inhibition of LPS-induced iNOS protein expression in mouse RAW264.7 cells at 20 uM after 24 hrs by Western blotting. The data set is classed as functional, cell-based.
The subject of data set [6] is RAW264.7. Nature of the data set: Inhibition of LPS-induced iNOS protein expression in mouse RAW264.7 cells at 5 uM after 24 hrs by Western blotting. The data set is classed as functional, cell-based.
Data set [7] relates to RAW264.7. The data set can be described thus: Antiinflammatory activity in mouse RAW264.7 cells assessed as inhibition of LPS-induced nitric oxide production at 10 uM after 24 hrs. The data set is classed as functional, cell-based.
Data set [8] concerns RAW264.7. Nature of the data set: Inhibition of LPS-induced COX2 protein expression in mouse RAW264.7 cells at 20 uM after 24 hrs by Western blotting. Type of data set: functional, cell-based.
In data set [9] the test system is RAW264.7. The data set can be described thus: Cytotoxicity against mouse RAW264.7 cells at 30 uM by MTT assay. As to conditions: raw264.7, 30 µM. The data set is classed as cell-based. Background: Tetrazolium assays rely on reduction of a dye to a coloured formazan, in cell work by metabolically active cells.

On to `COc1cc(-c2cc(=O)c3c(OC)c(OC)c(OC)c(OC)c3o2)ccc1O`, for which the outcome in the data set on RAW264.7 [1], with RAW264.7 [2], with RAW264.7 [3], in the data set on RAW264.7 [4], in the data set with RAW264.7 [5] and in the data set on RAW264.7 [6] was Active. Also, the result in the data set with RAW264.7 [7] and in the data set with RAW264.7 [8] was Active. The Activity result in the data set with RAW264.7 [9] is reported as “Non-toxic”.

In the case of `COc1c(OC)c(OC)c2c(=O)cc(-c3ccc(O)c(O)c3)oc2c1OC`, the result with RAW264.7 [1], in the data set on RAW264.7 [2], in the data set with RAW264.7 [3], with RAW264.7 [4], in the data set on RAW264.7 [5] and in the data set with RAW264.7 [6] was Active. The result in the data set with RAW264.7 [7] and with RAW264.7 [8] was Active. The Activity result in the data set on RAW264.7 [9] is reported as “Non-toxic”.

On to `COc1ccc(-c2cc(=O)c3c(OC)c(OC)c(OC)c(OC)c3o2)cc1O`, for which the outcome in the data set on RAW264.7 [3], in the data set with RAW264.7 [5] and with RAW264.7 [6] was inactive. For the same compound, the outcome with RAW264.7 [4] and in the data set with RAW264.7 [7] was Active. Moreover, the Activity entry with RAW264.7 [9] was “Non-toxic”.

For the compound `COc1ccc(-c2cc(=O)c3c(OC)c(OC)c(OC)c(OC)c3o2)cc1OC` [NOBILETIN], the result in the data set with RAW264.7 [4] and in the data set with RAW264.7 [7] was inactive. In the data set with RAW264.7 [9], the Activity entry was “Non-toxic”.
